Results from article PMC8954350, “Non-Canonical Cannabinoid Receptors with Distinct Binding and Signaling Properties in Prostate and Other Cancer Cell Types Mediate Cell Death” (International Journal of Molecular Sciences, 2022).
Like-named read-outs stand apart in the source and are kept apart here.

Columns and labels:
[1] = tested on: CBRs expressed in DU-145 membranes; format: binding, human
Method: (§1) The assay was conducted as previously detailed. […] All binding reactions were conducted in triplicate, in a final volume of 1 mL, and, following mixing, were incubated for 20 min in a 37 °C water bath to achieve equilibrium. After incubation, reactions were terminated by rapid vacuum filtration through Whatman GF/B glass fiber filters (Brandel; Gaithersburg, MD, USA), followed by three washes of 4 mls of ice-cold filtration buffer (50 mM Tris, pH 7.4, and 0.05% bovine serum albumin). Samples were punched out from filter papers into scintillation vials, to which 4 mls of ScintiverseTM-BDR cocktail scintillation fluid (Fisher Scientific; Hampton, NH, USA) was added. Filters were incubated at room temperature for 24 h in scintillation fluid, vortexed, and radioactivity (measured as DPMs) was quantified via a liquid scintillation spectrophotometer (Tri Carb 2100 TR Liquid Scintillation Analyzer, Packard Instruments, Meriden, CT, USA).
(§2) These experiments were conducted to screen well-characterized cannabinoid ligands with high affinity for canonical CB1 and/or CB2Rs for binding to CBRs expressed in prostate cancer cells lines, as detailed in [33]. […] All binding reactions were conducted in triplicate, in a final volume of 1 mL, and, following mixing, were incubated for 20 min in a 37 °C water bath to achieve equilibrium. After incubation, reactions were terminated by rapid vacuum filtration and processed for radioactivity, as detailed in Section 4.5.1.

[2] = tested on: CBRs expressed in PC-3 membranes; experiment: [^3H]WIN-55,212-2 competitive binding screen, PC-3 membranes; parameters: species or system human
Method: as §1, §2

[3] = 1 μM ligand, 1 nM radioligand, PC-3 membranes

Row | Structure (SMILES) | displacement of [^3H]WIN-55,212-2 [1] | displacement of [^3H]WIN-55,212-2 [2, 3] | displacement of [^3H]WIN-55,212-2 [2]
1 | CC(C)[C@H](NC(=O)c1nn(CCCCCF)c2ccccc12)C(N)=O [5F-AB-PINACA] | failed to displace | failed to displace | 
2 | CCCCC/C=C\C/C=C\C/C=C\C/C=C\CCCC(=O)NCCCl [ACEA] | failed to displace |  | failed to displace
3 | Cc1ccc(C(=O)c2cn(CCCCCF)c3ccccc23)c2ccccc12 [MAM-2201] | failed to displace | failed to displace | 
4 | OCCOc1ccc(/C(=C(/CCCl)c2ccccc2)c2ccccc2)cc1 [OSP, ospemifene] | failed to displace |  | failed to displace
5 | CC(C)c1ccc(NC(=O)Cn2cnc3c2c(=O)n(C)c(=O)n3C)cc1 [HC-030031] | Neither the high affinity TRPV1 ligands capsaicin [38], PDDHV [39], and CAY-100448 [40] nor the TRPA1 ligand HC-030031 [41] produced significant displacement |  | 
6 | COc1cc(CNC(=O)CCCC/C=C/C(C)C)ccc1O [capsaicin] | Neither the high affinity TRPV1 ligands capsaicin [38], PDDHV [39], and CAY-100448 [40] nor the TRPA1 ligand HC-030031 [41] produced significant displacement |  | 
7 | CCCCCCCCCC(=O)O[C@@H]1[C@@H](C)[C@@]2(O)[C@@H](C=C(COC(=O)Cc3ccc(O)c(OC)c3)C[C@]3(O)C(=O)C(C)=C[C@@H]23)[C@@H]2C(C)(C)[C@]12OC(=O)CCCCCCCCC [PDDHV] | Neither the high affinity TRPV1 ligands capsaicin [38], PDDHV [39], and CAY-100448 [40] nor the TRPA1 ligand HC-030031 [41] produced significant displacement |  | 
8 | CCCCCc1cc(O)c2c(c1)OC(C)(C)[C@@H]1CCC(C)=C[C@@H]21 [THC, Δ^9-tetrahydrocannabinol] | failed to displace | failed to displace | 
9 | O=C(NC12CC3CC(CC(C3)C1)C2)c1nn(CCCCCF)c2ccccc12 [5F-AKB48] | failed to displace |  | failed to displace
10 | C=C(C)[C@@H]1CCC(C)=C[C@H]1c1c(O)cc(CCCCC)cc1O [CBD, cannabidiol] | failed to displace | failed to displace | 
11 | Cc1c(C(=O)c2cccc3ccccc23)c2cccc3c2n1[C@@H](CN1CCOCC1)CO3 [WIN-55,212-3] | 13.9 ± 2.7% |  | 20.7 ± 10.3%
12 | O=C(Oc1cccc2ccccc12)c1cn(Cc2ccc(F)cc2)c2ccccc12 [FDU-PB-22] | failed to displace | failed to displace | 
13 | CCCCCCCC/C=C\CCCCCCCC(=O)N[C@H](C(=O)O)C(C)C [N-oleoyl-valine] | 15 ± 2.7% |  | 
14 | Cc1c(C(=O)Nc2cccc(C(F)(F)F)c2)cc(-c2ccccc2)n1CCCN1CCOCC1 [HC-067047] | 22 ± 3.8% |  | 
